Converted amounts (≈) assume the structure as drawn. “And” between values parts separate entries of the source, which are not always exact repeats. Equal entries are not always repeated. Where two headings read alike, the source gives them in different places.
Assays:
Bacillus cereus Roma709 = assay: MIC, microdilution, B. cereus; format: cell-based; conditions: Bacillus cereus
acetylcholinesterase = acetylcholinesterase (Homo sapiens, UniProt P22303); assay: biochemical; conditions: Tris-HCl pH 8.0, 25 °C, 405 nm; read-out: AChE IC50 (converted)
acetylcholinesterase, sequence (P22303 32-614, species assumed): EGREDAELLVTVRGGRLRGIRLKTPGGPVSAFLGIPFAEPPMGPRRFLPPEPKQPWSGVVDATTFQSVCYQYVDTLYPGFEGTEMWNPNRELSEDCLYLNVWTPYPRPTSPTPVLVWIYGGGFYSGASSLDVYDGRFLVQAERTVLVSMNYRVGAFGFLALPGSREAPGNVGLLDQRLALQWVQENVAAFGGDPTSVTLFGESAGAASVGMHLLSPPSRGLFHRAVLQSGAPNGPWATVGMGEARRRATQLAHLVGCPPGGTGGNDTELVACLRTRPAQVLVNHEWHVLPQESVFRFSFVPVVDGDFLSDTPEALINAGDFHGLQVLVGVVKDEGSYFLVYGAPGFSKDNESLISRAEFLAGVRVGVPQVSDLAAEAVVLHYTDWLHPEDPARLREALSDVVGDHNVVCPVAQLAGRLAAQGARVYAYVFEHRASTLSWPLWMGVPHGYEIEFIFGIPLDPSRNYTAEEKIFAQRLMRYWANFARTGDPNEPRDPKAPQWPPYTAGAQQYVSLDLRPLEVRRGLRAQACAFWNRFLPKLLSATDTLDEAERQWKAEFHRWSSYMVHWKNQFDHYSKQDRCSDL

[1] = test system: human retinal normal cell line (RPE); assay: MTT cell proliferation, RPE; conditions: for GI50 / IC50: Homo sapiens, 24 h; for GI50: read-out: GI50 RPE normal cell line; for IC50: read-out: IC50 RPE normal cell line
[2] = DPPH radical scavenging activity; conditions: 0.1 mM DPPH, 50 min dark, 517 nm
[3] = test system: Mycobacterium smegmatis ATCC607; assay: MIC, microdilution, M. smegmatis; format: cell-based; conditions: Tub., BHI broth, 36 °C; for MIC: Mycolicibacterium smegmatis, ATCC607, 72 h, read-out: MIC Ms; for MIC Ms: 72 h
butyrylcholinesterase = butyrylcholinesterase (Homo sapiens, UniProt P06276); assay: biochemical; conditions: Tris-HCl pH 8.0, 25 °C, 405 nm; read-out: BChE IC50 (converted)
butyrylcholinesterase, sequence (P06276 29-602): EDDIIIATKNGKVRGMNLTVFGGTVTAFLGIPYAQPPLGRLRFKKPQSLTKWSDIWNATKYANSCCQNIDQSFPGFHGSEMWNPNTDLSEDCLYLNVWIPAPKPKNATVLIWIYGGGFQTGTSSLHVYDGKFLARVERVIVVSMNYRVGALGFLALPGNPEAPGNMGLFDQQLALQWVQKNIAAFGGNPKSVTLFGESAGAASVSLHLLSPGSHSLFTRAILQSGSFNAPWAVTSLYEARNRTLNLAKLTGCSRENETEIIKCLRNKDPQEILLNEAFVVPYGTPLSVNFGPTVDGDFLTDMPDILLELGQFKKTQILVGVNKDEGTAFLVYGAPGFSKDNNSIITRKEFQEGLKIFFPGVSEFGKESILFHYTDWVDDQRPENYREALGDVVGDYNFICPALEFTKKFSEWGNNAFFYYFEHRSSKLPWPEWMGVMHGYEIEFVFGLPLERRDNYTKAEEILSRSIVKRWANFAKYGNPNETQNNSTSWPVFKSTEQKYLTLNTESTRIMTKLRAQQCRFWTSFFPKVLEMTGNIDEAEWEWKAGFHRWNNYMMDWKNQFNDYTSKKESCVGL

[4] = test system: Candida albicans ATCC60193; assay: MIC, microdilution, C. albicans; format: cell-based; conditions: Candida albicans, ATCC60193; fungus; YEPD broth, 48 h, 36 °C; read-out: MIC Ca
[5] = test system: Yersinia pseudotuberculosis ATCC911; assay: microbe, parasite or virus in culture; format: cell-based; conditions: Yersinia pseudotuberculosis, ATCC911, read-out: MIC Yp
α-glucosidase = assay: α-Glucosidase inhibition; format: biochemical; conditions: PNPG, pH 6.8, 37 °C, 400 nm
Procedure: It was incubated at 37 °C for 15 min. Similarly, an enzyme-free blank was prepared. The reaction was stopped when sodium carbonate (50 μL, 0.2 M) was added.

[6] = test system: human cervical cancer cell line (HeLa); assay: MTT cell proliferation, HeLa; conditions: for GI50 / IC50: Homo sapiens, HeLa, 24 h; for GI50: read-out: GI50 HeLa cell line; for IC50: read-out: IC50 HeLa cell line
[7] = Ferric reducing antioxidant power (FRAP) assay; conditions: Trolox equivalents; compounds 2 mg/mL, 30 °C 30 min, 595 nm
[8] = test system: Staphylococcus aureus ATCC25923; assay: MIC, microdilution, S. aureus; format: cell-based; conditions: Staphylococcus aureus
[9] = test system: Escherichia coli ATCC 25922; assay: MIC, microdilution, E. coli; format: cell-based; conditions: Escherichia coli
[10] = test system: Pseudomonas aeruginosa ATCC27853; assay: MIC, microdilution, P. aeruginosa; format: cell-based; conditions: Pseudomonas aeruginosa, ATCC27853; Gram (-); Mueller-Hinton broth, 18-24 h, 36 °C; read-out: MIC Pa
[11] = Copper ions reducing activity (CUPRAC); conditions: Trolox equivalents; 30 min dark, room temperature, 450 nm
[12] = test system: Enterococcus faecalis ATCC29212; assay: MIC, microdilution, E. faecalis; format: cell-based; conditions: Enterococcus faecalis, ATCC29212; Gram (+); Mueller-Hinton broth, 18-24 h, 36 °C; read-out: MIC Ef
[13] = test system: Streptococcus mutans RSKK07038; assay: MIC, microdilution, S. mutans; format: cell-based; conditions: Streptococcus mutans, RSKK07038; Gram (+); BHI broth, 72 h, 36 °C; read-out: MIC Sm
[14] = ROMA709, Gram (+), Mueller-Hinton broth, 18-24 h, 36 °C, read-out: MIC Bc
[15] = ATCC25923, Gram (+), Mueller-Hinton broth, 18-24 h, 36 °C, read-out: MIC Sa
[16] = ATCC25922, Gram (-), Mueller-Hinton broth, 18-24 h, 36 °C, read-out: MIC Ec

Structure (SMILES)	MIC (Bacillus cereus Roma709; [14])	IC50 (acetylcholinesterase)	DPPH radical scavenging capacity (SC50) [2]	MIC [3]	IC50 (butyrylcholinesterase)	MIC [4]	MIC [5]	α-Glucosidase IC50 (α-glucosidase)	FRAP, the iron reducing antioxidant power [7]	MIC [8, 15]	MIC [9, 16]	MIC [10]	CUPRAC, copper reducing antioxidant power [11]	MIC [12]	MIC (Bacillus cereus Roma709; ROMA709, read-out: MIC Bc)	MIC ([8]; ATCC25923, read-out: MIC Sa)	MIC ([9]; ATCC25922, read-out: MIC Ec)	MIC [13]	further results
O=C(c1cccc(O)c1)C(O)c1cccc(O)c1 (stereo not drawn) [Compound 4, 1,2-Bis(3-hydroxyphenyl)-2-hydroxyethanone]	160 µg/mL (≈ 655 µM)	454 µM	8.16 ± 0.3 mg/mL	160 µg/mL (≈ 655 µM)	462 µM	1280 µg/mL (≈ 5240 µM)	640 µg/mL (≈ 2620 µM)	>1000 µg/mL	1534 ± 75.0 μg/mL trolox/gram DW	640 µg/mL (≈ 2620 µM)	320 µg/mL (≈ 1310 µM)	320 µg/mL (≈ 1310 µM)	398.33 ± 22.1 μg/mL trolox/gram DW						GI50 [1]: 1.15 µg/mL (≈ 4.71 µM); IC50 [1]: 30.3 µg/mL (≈ 124 µM); GI50 [6]: 1.12 µg/mL (≈ 4.59 µM); IC50 [6]: 42.7 µg/mL (≈ 175 µM)
O=C(c1cc(O)cc(O)c1)C(O)c1cc(O)cc(O)c1 (stereo not drawn) [Compound 7, 1,2-Bis(3,5-dihydroxyphenyl)-2-hydroxyethanone]		443 µM	10.85 ± 0.7 mg/mL	70 µg/mL (≈ 253 µM)	> 3620 µM	283 µg/mL (≈ 1020 µM)	1140 µg/mL (≈ 4110 µM)	>1000 µg/mL	1715 ± 96.8 μg/mL trolox/gram DW			283 µg/mL (≈ 1020 µM)	95.00 ± 2.4 μg/mL trolox/gram DW	141 µg/mL (≈ 510 µM)	141 µg/mL (≈ 510 µM)	283 µg/mL (≈ 1020 µM)	141 µg/mL (≈ 510 µM)		
O=C(C(=O)c1cccc(O)c1)c1ccc(O)cc1 [Compound 12, 1-(4-Hydroxyphenyl)-2-(3-hydroxyphenyl)ethane-1,2-dione]	75 µg/mL (≈ 310 µM)	2070 µM	12.87 ± 0.9 mg/mL	9 to 18 µg/mL (≈ 37.2 to 74.3 µM)	1910 µM	18 µg/mL (≈ 74.3 µM)	38 µg/mL (≈ 157 µM)	54.69 µg/mL	1555 ± 34.1 μg/mL trolox/gram DW	38 µg/mL (≈ 157 µM)	75 µg/mL (≈ 310 µM)	75 µg/mL (≈ 310 µM)	155.00 ± 1.0 μg/mL trolox/gram DW	18 µg/mL (≈ 74.3 µM)					GI50 [1]: 1.92 µg/mL (≈ 7.93 µM); IC50 [1]: 105 µg/mL (≈ 434 µM); MIC Ms [3]: 18 µg/mL (≈ 74.3 µM); GI50 [6]: 2.04 µg/mL (≈ 8.42 µM); IC50 [6]: 85.2 µg/mL (≈ 352 µM)
O=C(C(=O)c1cc(O)cc(O)c1)c1cc(O)cc(O)c1 [Compound 14, 1,2-Bis(3,5-dihydroxyphenyl)ethane-1,2-dione]		257 µM	7.38 ± 1.0 mg/mL	51 µg/mL (≈ 186 µM)	> 3650 µM	51 µg/mL (≈ 186 µM)	102 µg/mL (≈ 372 µM)	87.10 µg/mL	1974 ± 76.9 μg/mL trolox/gram DW			51 µg/mL (≈ 186 µM)	133.33 ± 10.9 μg/mL trolox/gram DW	51 µg/mL (≈ 186 µM)	102 µg/mL (≈ 372 µM)		102 µg/mL (≈ 372 µM)		
O=C(C(=O)c1cccc(O)c1)c1cccc(O)c1 [Compound 11, 1,2-Bis(3-hydroxyphenyl)ethane-1,2-dione]	18 µg/mL (≈ 74.3 µM)	257 µM	10.03 ± 0.8 mg/mL	9 to 18 µg/mL (≈ 37.2 to 74.3 µM)	1400 µM	36 µg/mL (≈ 149 µM)	145 µg/mL (≈ 599 µM)	66.700 µg/mL	1340 ± 37.9 μg/mL trolox/gram DW	9 µg/mL (≈ 37.2 µM)	36 µg/mL (≈ 149 µM)	18 µg/mL (≈ 74.3 µM)	175.00 ± 3.5 μg/mL trolox/gram DW					18 µg/mL (≈ 74.3 µM)	MIC Ms [3]: 9 µg/mL (≈ 37.2 µM)
CC1(C)S[C@@H]2[C@H](NC(=O)[C@H](N)c3ccccc3)C(=O)N2[C@H]1C(=O)O [Amp., Ampicillin, reference compound]							18 µg/mL (≈ 51.5 µM)			35 µg/mL (≈ 100 µM)	10 µg/mL (≈ 28.6 µM)	> 128 µg/mL		10 µg/mL (≈ 28.6 µM)					
O=C(c1ccc(O)cc1)C(O)c1ccccc1 (stereo not drawn) [Compound 2, 2-Hydroxy-1-(4-hydroxyphenyl)-2-phenylethanone]		1070 µM	13.78 ± 1.3 mg/mL	129 µg/mL (≈ 565 µM)	323 µM	516 µg/mL (≈ 2260 µM)	1030 µg/mL (≈ 4520 µM)	547.97 µg/mL	1881 ± 75.5 μg/mL trolox/gram DW			2060 µg/mL (≈ 9050 µM)	140.00 ± 11.5 μg/mL trolox/gram DW		1030 µg/mL (≈ 4520 µM)	1030 µg/mL (≈ 4520 µM)	1030 µg/mL (≈ 4520 µM)	1030 µg/mL (≈ 4520 µM)	
N.N.[Cl][Pt][Cl] [Cisplatin, reference compound]																			GI50 RPE normal cell line ([1]; MTT, 24 h incubation): 1.56 µg/mL; IC50 RPE normal cell line ([1]; MTT, 24 h incubation): 58.77 µg/mL; GI50 HeLa cell line ([6]; MTT, 24 h incubation): 1.13 µg/mL; IC50 HeLa cell line ([6]; MTT, 24 h incubation): 42.76 µg/mL
O=C(C(=O)c1ccc(O)cc1)c1ccccc1 [Compound 9, 1-(4-Hydroxyphenyl)-2-phenylethane-1,2-dione]		637 µM	8.64 ± 0.5 mg/mL	108 µg/mL (≈ 477 µM)	> 4420 µM	108 µg/mL (≈ 477 µM)	217 µg/mL (≈ 959 µM)	47.78 µg/mL	1946 ± 83.7 μg/mL trolox/gram DW			108 µg/mL (≈ 477 µM)	48.33 ± 5.5 μg/mL trolox/gram DW	108 µg/mL (≈ 477 µM)	108 µg/mL (≈ 477 µM)	108 µg/mL (≈ 477 µM)	108 µg/mL (≈ 477 µM)		
O=C(c1ccc(O)cc1)C(O)c1cccc(O)c1 (stereo not drawn) [Compound 5, 2-Hydroxy-2-(3-hydroxyphenyl)-1-(4-hydroxyphenyl)ethanone]	48 µg/mL (≈ 197 µM)	3230 µM	8.12 ± 1.2 mg/mL	48 µg/mL (≈ 197 µM)	> 4090 µM		775 µg/mL (≈ 3170 µM)	>1000 µg/mL	2090 ± 101.4 μg/mL trolox/gram DW	96 µg/mL (≈ 393 µM)	387 µg/mL (≈ 1580 µM)	96 µg/mL (≈ 393 µM)	1113.33±64 μg/mL trolox/gram DW and 1113.33 ± 64.9 μg/mL trolox/gram DW	1550 µg/mL (≈ 6350 µM)				48 µg/mL (≈ 197 µM)	
